Assay results as given in patent US20240343727A1, “PYRIDAZINONE OR PYRIDINONE COMPOUNDS, PREPARATION METHODS AND USES THEREOF” (InventisBio Co., Ltd., priority 2021, published 2024).
Where two headings read alike, the source gives them in different places.

Legend:
NCI-H1373 cells = assay: Inhibition of cancer cell growth in NCI-H1373 cells (Cell-titer Glo, 6 days); assay type: cell-based; details: read-out: H1373 Cell Proliferation IC50
Procedure: Biological Assay Example B: Inhibition of cancer cell growth in NCI-H1373 cells by PARP7 inhibitors
NCI-H1373 cells were cultured in RPMI 1640 medium supplemented with 10% fetal bovine serum, 100 U/mL penicillin and 100 ug/mL streptomycin in a 37° C., 5% CO2 incubator. Fifteen hundred cells were seeded into each well of 96-well plate in RPMI1640 medium containing 10% fetal bovine serum and incubated overnight. Serial diluted compounds for each well were added at a final DMSO concentration of 0.5% and a day zero plate was collected for analysis. Compounds were incubated with the cells for 6 days. Cell growth was assessed using Cell-titer Glo reagent (Promega #G^7572). The luminescence signal was collected on Tecan Spark plate reader. Cell growth is determined by correcting for the cell count on day zero. Inhibition rate is calculated with the formula of % inhibition=100*(DMSO control-compounds)/(DMSO control-Blank). Cell growth inhibition IC50 is calculated with the equation of Y-Bottom+ (Top-Bottom)/(1+10^((LogIC50−X) *Hill Slope)).

PARP7 = molecular target: T1, PARP7 (Homo sapiens, UniProt Q7Z3E1); assay: PARP7 TR-FRET assay (binding, displacement of biotinylated Probe A); details: 6 nM PARP7, 2 nM Probe A, 25° C., 30 min
T1 sequence (Q7Z3E1 1-657): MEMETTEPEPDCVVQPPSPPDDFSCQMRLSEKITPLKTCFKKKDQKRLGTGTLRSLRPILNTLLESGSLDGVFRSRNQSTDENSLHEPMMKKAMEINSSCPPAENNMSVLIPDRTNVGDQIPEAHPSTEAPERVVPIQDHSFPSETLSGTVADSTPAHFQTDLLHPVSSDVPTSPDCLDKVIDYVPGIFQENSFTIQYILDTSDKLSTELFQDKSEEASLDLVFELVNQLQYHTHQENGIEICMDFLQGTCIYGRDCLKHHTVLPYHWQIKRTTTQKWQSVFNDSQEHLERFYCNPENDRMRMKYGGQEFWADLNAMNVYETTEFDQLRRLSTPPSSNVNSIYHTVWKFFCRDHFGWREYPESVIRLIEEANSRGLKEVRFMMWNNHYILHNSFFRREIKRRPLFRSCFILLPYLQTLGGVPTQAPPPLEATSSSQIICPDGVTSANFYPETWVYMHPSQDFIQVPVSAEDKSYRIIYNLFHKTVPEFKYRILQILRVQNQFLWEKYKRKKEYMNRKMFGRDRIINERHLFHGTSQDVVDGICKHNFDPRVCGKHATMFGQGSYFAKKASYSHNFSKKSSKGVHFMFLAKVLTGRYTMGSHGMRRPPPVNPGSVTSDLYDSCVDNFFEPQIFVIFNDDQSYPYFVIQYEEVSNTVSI
Summary of the method: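 His-tagged PARP7 at 6 nM was preincubated with compound and 2 nM biotinylated Probe A for 30 min at 25° C (HEPES pH 8.0, NaCl, BSA, DTT, Tween20). Europium-streptavidin/ULight-anti-His FRET was read as the 665/615 nm ratio after a further 30 min. IC50 was fitted from % inhibition normalised to vehicle and blank.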

SMILES | IC50 (NCI-H1373 cells; Homo sapiens, NCI-H1373, 144 h) | IC50 (PARP7) | IC50 (NCI-H1373 cells)
CN1C[C@@H](OCC(=O)N2CCN(c3ncc(C(F)(F)F)cn3)CC2)c2n[nH]c(=O)c3cc(F)cc1c23 (single isomer, unassigned) [Compound 14] | < 100 nM | < 100 nM | 
O=C(CC1CN(c2n[nH]c(=O)c3ccccc23)CCO1)N1CCN(c2ncc(C(F)(F)F)cn2)CC1 (single isomer, unassigned) [Compound 92] | 100 to 1000 nM | < 100 nM | 
N#Cc1cnc(N2CCN(C(=O)CC3CN(c4cc(C(F)(F)F)c(=O)[nH]n4)c4cc(C(F)F)ccc4O3)CC2)nc1 (single isomer, unassigned) [Compound 140] |  | < 100 nM | > 1000 nM
N#Cc1ccc2c(c1)N(c1cc(C(F)(F)F)c(=O)[nH]n1)CC(CC(=O)N1CCN(c3ccc(C(F)(F)F)cn3)CC1)O2 (single isomer, unassigned) [Compound 346] | > 1000 nM | < 100 nM | 
O=C(c1cccc(Oc2n[nH]c(=O)c(C(F)(F)F)c2N2CC3(CCC3)C2)c1)N1CCN(c2ncc(Cl)cn2)CC1 [Compound 199] | < 100 nM | < 100 nM | 
O=C(COC1CCOc2c1n[nH]c(=O)c2Br)N1CCN(c2ncc(C(F)(F)F)cn2)CC1 (single isomer, unassigned) [Compound 8] | 100 to 1000 nM | < 100 nM | 
N#Cc1cnc(N2CCN(C(=O)CC3CN(c4cc(C(F)(F)F)c(=O)[nH]n4)c4cc(C(F)F)ccc4O3)CC2)nc1 (single isomer, unassigned) [Compound 138] |  | < 100 nM | < 100 nM
N#Cc1ccc(N2CCN(C(=O)c3cccc(Oc4n[nH]c(=O)c(C(F)(F)F)c4N4CC5(CCCO5)C4)c3)CC2)nc1 [Compound 223] | 100 to 1000 nM | < 100 nM | 
C[C@@H]1CC[C@@H](CCC(=O)N2CCN(c3ncc(C(F)(F)F)cn3)CC2)N1c1cc(C(F)(F)F)c(=O)[nH]n1 [Compound 156] | < 100 nM | < 100 nM | 
Cn1ccc2c(=O)[nH]nc(Oc3cccc(C(=O)N4CCN(c5ncc(C(F)(F)F)cn5)CC4)c3)c21 [Compound 73] | 100 to 1000 nM | < 100 nM | 
O=C(CC[C@@H]1CCCN1c1cc(C(F)(F)F)c(=O)[nH]n1)N1CCN(c2ncc(C(F)(F)F)cn2)CC1 [Compound 86] | < 100 nM | < 100 nM | 
COC1CC(Nc2c(Oc3cccc(C(=O)N4CCN(c5ncc(C(F)(F)F)cn5)CC4)c3)n[nH]c(=O)c2C(F)(F)F)C1 (stereo not shown) [Compound 168] | 100 to 1000 nM | < 100 nM | 
C[C@@H]1CN(C(=O)c2cccc(Oc3n[nH]c(=O)c(C(F)(F)F)c3N3CC4(CCO4)C3)c2)CCN1c1ncc(C(F)(F)F)cn1 [Compound 252] | < 100 nM | < 100 nM | 
O=C(COC1CCOc2c1n[nH]c(=O)c2Cl)N1CCN(c2ncc(C(F)(F)F)cn2)CC1 (single isomer, unassigned) [Compound 54] |  | < 100 nM | > 1000 nM
O=C(c1cccc(Oc2n[nH]c(=O)c(C(F)(F)F)c2N2CC3(CCC3)C2)c1)N1CCN(c2cnc(C(F)(F)F)cn2)CC1 [Compound 188] | < 100 nM | < 100 nM | 
COCc1ccc2c(c1)N(c1cc(C(F)(F)F)c(=O)[nH]n1)CC(CC(=O)N1CCN(c3ncc(C(F)(F)F)cn3)CC1)O2 (single isomer, unassigned) [Compound 266] | < 100 nM | < 100 nM | 
O=C(C[C@H]1CN(c2cc(C(F)(F)F)c(=O)[nH]n2)c2ccccc2O1)N1CCN(c2ncc(C(F)(F)F)cn2)CC1 [Compound 35] | > 1000 nM | 100 to 1000 nM | 
N#Cc1ccc2c(c1)N(c1cc(C(F)(F)F)c(=O)[nH]n1)CC(CC(=O)N1CCN(c3ncc(C4CC4)cn3)CC1)O2 (single isomer, unassigned) [Compound 316] | < 100 nM | < 100 nM | 
C#Cc1ccc2c(c1)N(c1cc(C(F)(F)F)c(=O)[nH]n1)CC(CC(=O)N1CCN(c3ncc(C(F)(F)F)cn3)CC1)O2 (stereo not shown) [Compound 149] | < 100 nM | < 100 nM | 
N#Cc1ccc(N2CCN(C(=O)CC3CN(c4cc(C(F)(F)F)c(=O)[nH]n4)c4cc(Cl)ccc4O3)CC2)nc1 (single isomer, unassigned) [Compound 224] |  | < 100 nM | 
C[C@@H]1CN(C(=O)CC2CN(c3cc(C(F)(F)F)c(=O)[nH]n3)c3cc(F)ccc3O2)CCN1c1ncc(C#N)cn1 (single isomer, unassigned) [Compound 325] |  | < 100 nM | 

SMILES | IC50 (NCI-H1373 cells; Homo sapiens, NCI-H1373, 144 h) | IC50 (PARP7) | IC50 (NCI-H1373 cells)
CNC1CC(Nc2c(Oc3cccc(C(=O)N4CCN(c5ncc(C(F)(F)F)cn5)CC4)c3)n[nH]c(=O)c2C(F)(F)F)C1 (stereo not shown) [Compound 171] |  | 100 to 1000 nM | 
O=C(CC1CN(c2n[nH]c(=O)c3cc(F)ccc23)CCO1)N1CCN(c2ncc(C(F)(F)F)cn2)CC1 (single isomer, unassigned) [Compound 49] |  | 100 to 1000 nM | 
O=C(c1cccc(Oc2n[nH]c(=O)c(C(F)(F)F)c2N2CC3(CC(F)C3)C2)c1)N1CCN(c2ncc(C(F)(F)F)cn2)CC1 [Compound 176] |  | < 100 nM | 
N#Cc1ccc(N2CCN(C(=O)CC3CN(c4cc(C(F)(F)F)c(=O)[nH]n4)c4cc(F)ccc4O3)CC2)nc1 (single isomer, unassigned) [Compound 268] |  | < 100 nM | 
O=C(CC1CN(c2cc(C(F)(F)F)c(=O)[nH]n2)c2ccc(F)cc2O1)N1CCN(c2ncc(C(F)(F)F)cn2)CC1 (single isomer, unassigned) [Compound 158] |  | 100 to 1000 nM | 
O=C(CC1CN(c2cc(C(F)(F)F)c(=O)[nH]n2)c2cc(F)ccc2O1)N1CCN(c2ccc(C3CC3)cn2)CC1 (single isomer, unassigned) [Compound 301] |  | > 1000 nM | 
C[C@@H]1CN(c2cc(C(F)(F)F)c(=O)[nH]n2)C[C@H](CC(=O)N2CCN(c3ncc(C(F)(F)F)cn3)CC2)O1 (stereo in doubt) [Compound 110] |  | 100 to 1000 nM | 
O=C(c1cccc(Oc2n[nH]c(=O)c(C(F)(F)F)c2OCC2CCOCC2)c1)N1CCN(c2ncc(C(F)(F)F)cn2)CC1 [Compound 217] |  | < 100 nM | 
CNc1c(Oc2cccc(C(=O)N3CCN(c4ncc(C(F)(F)F)cn4)CC3)c2)n[nH]c(=O)c1C(C)=O [Compound 74] |  | > 1000 nM | 
C[C@@H]1CN(C(=O)c2cc(Oc3n[nH]c(=O)c(C(F)(F)F)c3N3CC4(C3)CC(F)(F)C4)ccn2)CCN1c1cnc(C(F)(F)F)cn1 [Compound 147] |  | < 100 nM | 
O=C(CC1CN(c2n[nH]c(=O)c3c(Cl)cccc23)CCO1)N1CCN(c2ncc(C(F)(F)F)cn2)CC1 (single isomer, unassigned) [Compound 98] |  | < 100 nM | 
COC1CN(c2c(Oc3cncc(C(=O)N4CCN(c5ncc(C(F)(F)F)cn5)CC4)c3)n[nH]c(=O)c2C(F)(F)F)C1 [Compound 239] |  | < 100 nM | 
O=C(CC1CN(c2cc(C(F)(F)F)c(=O)[nH]n2)c2ccncc2O1)N1CCN(c2ncc(C(F)(F)F)cn2)CC1 (stereo not shown) [Compound 347] |  | < 100 nM | 
C[C@@H]1CN(C(=O)CC2CN(c3cc(C(F)(F)F)c(=O)[nH]n3)c3cc(C#N)ccc3O2)CCN1c1ncc(Cl)cn1 (single isomer, unassigned) [Compound 141] |  | < 100 nM | 
N#Cc1ccc(N2CCN(C(=O)CC3CN(c4cc(C(F)(F)F)c(=O)[nH]n4)c4ccccc4O3)CC2)nc1 (single isomer, unassigned) [Compound 221] |  | < 100 nM | 
C#Cc1ccc2c(=O)[nH]nc(N3CCOC(CC(=O)N4CCN(c5ncc(C(F)(F)F)cn5)CC4)C3)c2c1 (single isomer, unassigned) [Compound 194] |  | < 100 nM | 
Cc1c(Oc2ccc(F)c(C(=O)N3CCN(c4ncc(C(F)(F)F)cn4)CC3)c2)n[nH]c(=O)c1C(F)(F)F [Compound 25] |  | < 100 nM | 
O=C(CC1CN(c2n[nH]c(=O)c3ccc(C4CC4)cc23)CCO1)N1CCN(c2ncc(C(F)(F)F)cn2)CC1 (single isomer, unassigned) [Compound 105] |  | 100 to 1000 nM | 
O=C(CO[C@@H]1C[C@@H](CC2CC2)Oc2c1n[nH]c(=O)c2C(F)(F)F)N1CCN(c2ncc(C(F)(F)F)cn2)CC1 (stereo in doubt) [Compound 144] |  | < 100 nM | 
N#Cc1ccc(N2CCN(C(=O)c3cc(Oc4n[nH]c(=O)c(C(F)(F)F)c4N4CC5(CCC5)C4)ccn3)CC2)nc1 [Compound 274] |  | < 100 nM | 
O=C(c1cncc(Oc2n[nH]c(=O)c(C(F)(F)F)c2N2CC3(CCC3)C2)c1)N1CCN(c2ncc(C(F)(F)F)cn2)CC1 [Compound 84] |  | < 100 nM | 
